Measured values: paper PMC9854584, “Synergistic Activity of Pep16, a Promising New Antibacterial Pseudopeptide against Multidrug-Resistant Organisms, in Combination with Colistin against Multidrug-Resistant Escherichia coli, In Vitro and in a Murine Peritonitis Model” (Antibiotics, 2023)
Values after ≈ are worked out from the molar mass of the structure shown. Where two headings read alike, the source gives them in different places.

How the values were obtained:
E. coli Af31 = assay: MIC, broth microdilution (EUCAST); type: cell-based, Escherichia coli
Procedure: (§1) The MICs of Pep16 and colistin were determined by the broth microdilution method in accordance with the EUCAST guidelines (www.eucast.org, accessed on 2 September 2022). In order to investigate for the presence of a potential inoculum effect in vitro, MICs were performed with various inoculum sizes, increasing from 10^5 to 10^7 CFU/mL. To explore MIC variations in the presence of albumin, MICs were also determined in Mueller–Hinton broth (MHB) supplemented with 4% human albumin.

E. coli B119 = assay: MIC, broth microdilution (EUCAST); type: cell-based, Escherichia coli; conditions: B119, inoculum 10^5 CFU/mL
Procedure: as §1

[1] = test system: E. coli CFT073-pTOPO-COLR; assay: MIC, broth microdilution (EUCAST); type: cell-based, Escherichia coli
Procedure: as §1

E. coli CFT073-pTOPO [2] = assay: MIC, broth microdilution (EUCAST); type: cell-based, Escherichia coli; conditions: at least three experiments
Procedure: as §1

E. coli CFT073-pTOPO [3] = type: in vivo, mice; conditions: peritonitis due to CFT073-pTOPO; for mean bacterial counts in the spleen / mice that died before the planned time of the sacrifice: single s.c. dose 2 h after inoculation: Pep16 10 mg/kg, colistin 10 mg/kg, cefotaxime 100 mg/kg, or colistin 10 + Pep16 10 mg/kg; for mice that died before the planned time of the sacrifice: planned sacrifice 3, 6, 12 h
Procedure: (§2) Animal experiments were performed in accordance with the prevailing regulations and ethical requirements of the Direction of Veterinary Services of Paris. The experimental protocol was approved by the French Ministry of Research and by the Ethics Committee for Animal Experiments (No. APAFIS 22330-2019092415325730). Animals were housed in regulation cages and given free access to food and water. Swiss ICR-strain female mice weighing 25 to 30 g were used.
We used the lethal murine intraperitoneal infection model previously developed by our group. Mice were inoculated by the intraperitoneal route with 250 μL of a bacterial suspension in porcine mucin 10% (Sigma–Aldrich), corresponding to a final inoculum of approximately 2.5 × 10^7 CFU/mL. The strains tested were CFT073-pTOPO and CFT073-pTOPO-COLR. Two hours after inoculation, at least three mice per strain were sacrificed to determine the pre-therapeutic bacterial loads, referred to as start-of-treatment controls, since all untreated mice died within 12 h (data not shown), preventing the use of end-of-treatment controls. Each treatment group was composed of 9 mice, which were administered a single dose of antibiotic (or of a combination of antibiotics) subcutaneously 2 h after inoculation. The treatment groups were Pep16 10 mg/kg, colistin 10 mg/kg, cefotaxime 100 mg/kg, and Pep16 10 mg/kg + colistin 10 mg/kg. Doses of cefotaxime and colistin were chosen based on previous pharmacokinetic analysis, while the dose of Pep16 was chosen based on the present survival study and pharmacokinetic analysis. In each treatment group, mice were sacrificed by 200 µL of pentobarbital 40% (Euthasol VetVR, Dechra Veterinary Products, Montigny-Le-Bretonneux, France) in a sequential way: 3 mice 3 h after treatment, 3 mice 6 h after treatment, and 3 mice 12 h after treatment. Immediately after death, the spleens were extracted and homogenized. Samples were plated on LB agar. To detect resistant mutants after treatment with colistin, samples were also plated on LB agar containing colistin at 4× MIC. The MICs of colistin-resistant mutants were determined (see above). Colony counts were then determined after 48 h of culture. Endpoints were spontaneous death (before the planned time of the sacrifice), bacterial counts in the spleen, and the emergence of colistin-resistant mutants. The assessment criteria of the murine model were: (i) mortality rate; (ii) bacterial counts in peritoneal fluid (PF) and the spleen; and (iii) the selection of colistin-resistant mutants after 24 h of treatment.

E. coli CFT073-pTOPO [4] = assay: Flow cytometry study of membrane permeability (Live/Dead BacLight, SYTO9/PI); type: cell-based, Escherichia coli; conditions: 30 min exposure, 10^6 CFU/mL; colistin 0.25 mg/L (0.25x MIC), Pep16 16 mg/L (0.25x MIC), alone or combined; positive control 90% ethanol; D/M = Q3/(Q1+Q2+Q3)
Procedure: Flow cytometry was used to investigate membrane permeability after exposure to antibiotics. Experiments were executed on a Fortessa X-20 flow cytometer (Becton Dickinson, Le Pont de Claix, France) equipped with a 488 nm laser. Exponentially growing E. coli CFT073-pTOPO cells at 10^6 CFU/mL were obtained and incubated with colistin and/or Pep16 at 0.25× MIC during 30 min. […] The samples were centrifuged and reconstituted in phosphate-buffered saline twice. Cells were then stained by using a Live/Dead BacLight kit (Molecular Probes, Invitrogen, Cergy-Pontoise, France) as previously shown [20]. The kit consists of two fluorescent intercalating agents, propidium iodide (PI) and SYTO9, which both stain nucleic acids. The green-fluorescing SYTO9 is able to enter all cells when used alone, whereas the red-fluorescing PI only enters cells with damaged cytoplasmic membranes. The appropriate mixture of the SYTO9 and PI stains enables differentiation between bacteria with intact cytoplasmic membranes and dead bacteria with permeabilized cytoplasmic membranes. Optical filters were set up such that red fluorescence was measured at 635 nm and green fluorescence was measured at 500 nm. The proportion of dead cells (colored in red)/marked cells (colored in red and/or green) was retrieved for each condition. A minimum of 50,000 events per condition were recorded.

[5] = test system: E. coli CFT073-pTOPO-COLR; assay: Murine peritoneal infection model; type: in vivo, mice; conditions: peritonitis due to CFT073-pTOPO-COLR; single s.c. dose: Pep16 10 mg/kg, colistin 10 mg/kg, or colistin 10 + Pep16 10 mg/kg
Procedure: as §2
We used the lethal murine intraperitoneal infection model previously developed by our group. Mice were inoculated by the intraperitoneal route with 250 μL of a bacterial suspension in porcine mucin 10% (Sigma–Aldrich), corresponding to a final inoculum of approximately 2.5 × 10^7 CFU/mL. The strains tested were CFT073-pTOPO and CFT073-pTOPO-COLR. Two hours after inoculation, at least three mice per strain were sacrificed to determine the pre-therapeutic bacterial loads, referred to as start-of-treatment controls, since all untreated mice died within 12 h (data not shown), preventing the use of end-of-treatment controls. Each treatment group was composed of 9 mice, which were administered a single dose of antibiotic (or of a combination of antibiotics) subcutaneously 2 h after inoculation. […] The MICs of colistin-resistant mutants were determined (see above). Colony counts were then determined after 48 h of culture. […]

[6] = test system: colistin-resistant mutants of E. coli CFT073-pTOPO and B119; assay: MIC for colistin-resistant mutants selected in time-kill curves; type: cell-based, Escherichia coli; conditions: mutants after 24 h of exposure to colistin alone in time-kill curves
Procedure: as §1
Time–kill curves were performed with Pep16 (4–128 mg/L) and colistin (0.5–8 mg/L) alone or in combination. Exponentially growing E. coli cells were incubated in 10 mL of Mueller–Hinton broth to obtain 10^6 CFU/mL with Pep16 and/or colistin. Viable counts were enumerated by plating 100 μL of appropriate culture dilutions on to lysogeny broth (LB) agar plates after 0, 1, 3, 6, and 24 h of incubation at 37 °C and expressed in log10 CFU/mL. The lower limit of detection was 1 log10 CFU/mL. A bactericidal effect is defined as a 3 log10 decrease in CFU counts compared with the initial inoculum. A synergistic effect is defined as a 2 log10 decrease in CFU counts between the combination and its most-active constituent after 24 h. […] The MICs of colistin-resistant mutants after 24 h of colistin monotherapy were determined (see above). […]

CO/N=C(\C(=O)N[C@@H]1C(=O)N2C(C(=O)O)=C(COC(C)=O)CS[C@H]12)c1csc(N)n1 [Cefotaxime, cefotaxime]
MIC (E. coli Af31; Escherichia coli, AF31): 0.06 µg/mL (≈ 0.132 µM) | MIC (E. coli B119; Escherichia coli, read-out: MIC): 0.06 µg/mL (≈ 0.132 µM) | MIC ([1]; Escherichia coli): 0.06 µg/mL (≈ 0.132 µM) | MIC (E. coli CFT073-pTOPO [2]; Escherichia coli, CFT073PTOPO, inoculum 10^5 CFU/mL): 0.06 µg/mL (≈ 0.132 µM) | MIC (E. coli CFT073-pTOPO [2]; Escherichia coli, CFT073PTOPO, inoculum 10^6 CFU/mL): 1 µg/mL (≈ 2.2 µM) | MIC (E. coli CFT073-pTOPO [2]; Escherichia coli, CFT073PTOPO, inoculum 10^7 CFU/mL): 8 µg/mL (≈ 17.6 µM) | mean bacterial counts in the spleen (E. coli CFT073-pTOPO [3]): 3.6 × 10^6 CFU/g | mice that died before the planned time of the sacrifice (E. coli CFT073-pTOPO [3]): 0/9

colistin sulfate
MIC (E. coli Af31; Af31 (mcr-1 plasmid), inoculum 10^5 CFU/mL): 8 µg/mL | MIC (E. coli B119): 1 µg/mL | MIC ([1]; CFT073-pTOPO-COLR, inoculum 10^5 CFU/mL): 16 µg/mL | MIC (E. coli CFT073-pTOPO [2]; inoculum 10^5 CFU/mL): 1 µg/mL | MIC (E. coli CFT073-pTOPO [2]; inoculum 10^6 CFU/mL): 2 µg/mL | MIC (E. coli CFT073-pTOPO [2]; inoculum 10^7 CFU/mL): 32 µg/mL | percentage of dead cells/marked cells (D/M) (E. coli CFT073-pTOPO [4]): 60% | proportion of mice with colistin-resistant mutants (E. coli CFT073-pTOPO [3]; colistin 10 mg/kg alone or with Pep16 10 mg/kg): 9/9 | mean counts of colistin-resistant mutants in the spleens (E. coli CFT073-pTOPO [3]; colistin 10 mg/kg alone or with Pep16 10 mg/kg, LB agar with colistin at 4x MIC): 1.6 × 10^3 CFU/g | mean bacterial counts in the spleen (E. coli CFT073-pTOPO [3]): 2.7 × 10^8 CFU/g | mice that died before the planned time of the sacrifice (E. coli CFT073-pTOPO [3]): 1/9 | mean bacterial counts in the spleen [5]: 4.0 × 10^8 CFU/g | mice that died before the planned time of the sacrifice [5]: 5/9 | MIC of colistin-resistant mutants [6]: 8 to 16 µg/mL
